The nature of data set [1]: Discoloration of CBD solutions and formulations. The data set is classed as physicochemical. Particulars: by end of day 1. From the text:
The CBD2 material dissolved like the CBD1 therefore the CBD2 is CBD without the discoloration properties of CBD1.

Data set [2] can be described thus: Initial solubility studies of CBD in solvents. The data set is classed as physicochemical. The protocol: First, the solubility of cannabidiol (CBD) was assessed. The powder looked granulated under the microscope. […] The conclusions from the solubility studies were that OA and IPA were very good solvents and it was surprising that IPA was so much better than ethanol.
Solubility studies: CBD dissolved at the 10% level in AE and barely 9.5% in IPM. Further exploration was not conducted due to the small amount of drug API available for non-GMP work. CBD is soluble greater than 10% but probably not in excess of 20%, as the time to dissolve additional CBD was taking considerably longer.

For data set [3] the following is noted: in ethanol, reported value; cited from earlier work.
The target in data set [4] is T1, human vanilloid receptor type 1 (VR1) (Homo sapiens, UniProt Q8NER1).
T1 construct: host or cells: HEK cells transfected with hVR1 (HEK-hVR1)
Particulars: HEK-hVR1 transfected cells; cited from earlier work.

In another data set the test system is anandamide. Conditions: rat basophilic leukemia cells; cited from earlier work.
The next data set has as its system sensitized guinea-pigs. Conditions: 1 mg/kg i.v.; cited from earlier work.
For a further data set, the system named is rats. Conditions: 5 mg/kg i.v. once daily for 4 weeks; cited from earlier work.
The subject of data set [5] is immortalized human sebocytes. Conditions: cited from earlier work.

Structures are written as SMILES.

T1 sequence (Q8NER1 whole entry): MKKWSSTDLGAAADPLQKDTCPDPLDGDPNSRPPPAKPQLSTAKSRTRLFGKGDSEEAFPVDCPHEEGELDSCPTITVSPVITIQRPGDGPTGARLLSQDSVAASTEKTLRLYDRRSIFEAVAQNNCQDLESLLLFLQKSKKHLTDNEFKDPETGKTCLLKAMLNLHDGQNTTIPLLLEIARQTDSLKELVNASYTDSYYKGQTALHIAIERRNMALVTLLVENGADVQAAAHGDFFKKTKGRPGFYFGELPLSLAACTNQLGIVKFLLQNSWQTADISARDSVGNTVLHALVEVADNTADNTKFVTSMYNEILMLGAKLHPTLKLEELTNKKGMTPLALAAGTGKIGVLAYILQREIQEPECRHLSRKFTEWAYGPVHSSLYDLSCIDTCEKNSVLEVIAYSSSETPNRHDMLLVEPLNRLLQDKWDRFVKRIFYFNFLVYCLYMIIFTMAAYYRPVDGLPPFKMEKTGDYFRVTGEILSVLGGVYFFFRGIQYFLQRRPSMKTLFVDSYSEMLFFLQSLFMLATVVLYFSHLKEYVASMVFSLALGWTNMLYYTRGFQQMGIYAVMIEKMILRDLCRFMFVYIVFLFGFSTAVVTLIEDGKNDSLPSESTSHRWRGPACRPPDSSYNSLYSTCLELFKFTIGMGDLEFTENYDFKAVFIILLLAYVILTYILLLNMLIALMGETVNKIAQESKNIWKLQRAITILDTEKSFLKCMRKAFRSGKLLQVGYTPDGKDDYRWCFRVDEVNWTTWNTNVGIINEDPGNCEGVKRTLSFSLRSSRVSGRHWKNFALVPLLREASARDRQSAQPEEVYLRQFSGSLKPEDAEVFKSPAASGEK

`C=C(C)[C@@H]1CCC(C)=C[C@H]1c1c(O)cc(CCCCC)cc1O` [CBD1]: the discoloration of solution result in data set [1] was “colored by the end of the day”.

In the case of `C=C(C)[C@@H]1CCC(C)=C[C@H]1c1c(O)cc(CCCCC)cc1O` [CBD2], the discoloration of solution result in data set [1] was “None of the CBD2 solutions were colored at the end of day 1”.

In the case of `C=C(C)C1CCC(C)=CC1c1c(O)cc(CCCCC)cc1O` (stereo not shown) [CBD, 2-[3-methyl-6-(1-methylethenyl)-2-cyclohexen-1-yl]-5-pentyl-1,3-benzenediol], the “solubility of CBD” value in data set [2] (in arlamol E (AE), probably not in excess of 20%) is recorded as “greater than 10%”; in data set [2] (in isopropyl myristate (IPM)) it was about 9.5%; in data set [2] (weight to weight, in ethanol), 6-7%; in data set [2] (weight to weight, in hexamethyldisiloxane (HDS)), 3-4%; in data set [2] (weight to weight, in isopropyl alcohol (IPA)) it was “greater than 14%”; in data set [2] (weight to weight, in mineral oil), 3-4%. Moreover, the “solubility of CBD” value in data set [2] (weight to weight, in oleyl alcohol (OA), did not go higher) is reported as “greater than 8%”; in data set [2] (weight to weight, in propylene glycol (PG)), 6-7%. The “reported solubility of CBD” value in data set [3] is reported as 3.5%. For the same compound, the “stimulation of human VR1” value in data set [4] is listed as “maximum effect similar in efficacy to that of capsaicin”. In addition, the effect on anandamide entry in the data set on anandamide is recorded as “inhibit anandamide”. Besides, the ovalbumin-induced airway obstruction entry in the data set on sensitized guinea-pigs is reported as “attenuated ovalbumin-induced airway obstruction”. In addition, the “cardiac inflammation produced by doxorubicin” value in the data set on rats is “attenuated cardiac inflammation produced by doxorubicin”. Further, in data set [5], the effects on sebocytes result was “lipostatic, anti-proliferative, and anti-inflammatory effects”.

The record behind these values is US20220323401A1, “FORMULATIONS OF CANNABINOIDS FOR THE TREATMENT OF ACNE” (priority 2017, published 2022).
